Values after ≈ are worked out from the molar mass of the structure shown. Like-named read-outs stand apart in the source and are kept apart here. Where a SMILES comes first, the peptide text is derived from it. Bridges are numbered along the chain shown (N, C = ends). [ ]: non-standard residue; d: D form. The star is where a group is joined. X1 = CC[C@H](C)CCCCC(=O)*; Dab = NCC[C@H](N)C(=O)O

The subject of assay [1] is K. pneumonia (ATCC BAA-2470). The conditions noted are these: Gram-negative, carbapenem-resistant; CLSI microdilution, CAMHB, 37 °C, 24 h; highest MIC of three independent experiments in triplicate. The method, boiled down: (§1)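 Inoculum 10^6 CFU/mL in CAMHB against 2-fold peptide series; salt variants used 150 mM NaCl, 4.5 mM KCl, 6 mM NH4Cl, 1 mM MgCl2, 2 mM CaCl2, or 25% FBS.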
(In general: Broth dilution looks for growth in wells or tubes with falling amounts of substance.)

Assay [2] concerns A. baumannii (ATCC BAA1605). Particulars: Gram-negative, footnote e ciprofloxacin (MDR in Table S3); CLSI microdilution, CAMHB, 37 °C, 24 h; highest MIC of three independent experiments in triplicate. The method, boiled down: as §1
Assay [3] deals with P. aeruginosa (ATCC BAA-1744). The conditions noted are these: Gram-negative, resistant strain (marked a; imipenem resistant in Table S3); CLSI microdilution, CAMHB, 37 °C, 24 h; highest MIC of three independent experiments in triplicate. The procedure, abridged: as §1
For assay [4], the system named is P. aeruginosa (ATCC 10145). The conditions noted are these: Gram-negative; CLSI microdilution, CAMHB, 37 °C, 24 h; highest MIC of three independent experiments in triplicate. The method, boiled down:
as §1

Assay [5] relates to E. coli (ATCC BAA-2452). Particulars: Gram-negative, NDM-1; CLSI microdilution, CAMHB, 37 °C, 24 h; highest MIC of three independent experiments in triplicate. The procedure, abridged:
as §1

Assay [6] relates to Klebsiella pneumonia (ATCC 13883). The conditions noted are these: Gram-negative; CLSI microdilution, CAMHB, 37 °C, 24 h; highest MIC of three independent experiments in triplicate. The method, boiled down: as §1
A further assay concerns E. coli (ATCC 25922). The conditions noted are these: for MIC, E. coli (ATCC 25922): broth microdilution (CLSI), CAMHB, 37 °C, 24 h. The procedure, abridged:
as §1

Assay [7] has as its system E. coli (ATCC BAA-2452). The assay can be described thus: Flow cytometric analysis of PI-stained cells. Format: cell-based. Particulars: MIC and 4 × MIC, 1 h, flow cytometry. On the procedure:
The flow cytometric analysis was performed by using MRSA (ATCC BAA-1556) and E. coli (ATCC BAA-2452) cultures grown to the mid log phase in Mueller Hinton broth (HIMEDIA). Before treatment, bacterial cells were washed thrice with buffer (10 mM Tris, pH 7.4) and resuspended in the same buffer to obtain 10^7 CFU/mL bacterial suspensions. Test peptides (8a and 8b) and the standard antibiotics (daptomycin and polymyxin B) at MIC and 4 × MIC were incubated with bacterial suspension for 1 h. Following the treatment with test peptides, the cells were pelleted by centrifugation at 3000g for 15 min in a microcentrifuge. The supernatant was decanted, and the cells were washed with PBS several times and then incubated with PI ([…]) in the dark for 15 min at 37 °C. FACS analysis of the stained bacterial cells was performed using a FACscan flow cytometer (BD Accuri C6, BD Biosciences, California, USA), and data were analyzed by using Cell Quest software.
A general note: In flow cytometry, cells or beads pass a laser one at a time.

The subject of assay [8] is E. coli (ATCC BAA-2452). The assay is described as follows: Bactericidal kinetic assay. Format: cell-based. On the procedure:
The time course of bacterial killing was studied by the exposure of overnight grown cultures of MRSA (ATCC BAA-1556) and E. coli (ATCC BAA-2452) to 8a and 8b at the MIC and 4× the MIC in Muller Hinton media. Bacterial cells (2 × 10^6 CFU/mL) were treated with peptides and standard antibiotics and incubated at 37 °C. Aliquots were withdrawn at a 30 min time interval for 4 h and plated on the agar plate to determine the number of viable bacterial colonies. Data were obtained from two independent experiments performed in triplicate.

In assay [9] the test system is K. pneumoniae (ATCCBAA-1705). The assay is described as follows: MIC, standard microtiter dilution (CLSI). Format: cell-based, Klebsiella pneumoniae. Particulars: broth microdilution (CLSI), CAMHB, 37 °C, 24 h. The method, boiled down:
as §1

Assay [10] has as its system P. aeruginosa (ATCC 27883). The assay is described as follows: MIC, standard microtiter dilution (CLSI). Format: cell-based, Pseudomonas aeruginosa. Particulars: broth microdilution (CLSI), CAMHB, 37 °C, 24 h. The method, boiled down:
as §1

Setting [11] is: 10^6 CFU/mL, highest MIC of three independent experiments in triplicate.

For the compound `CC[C@H](C)CCCCC(=O)N[C@@H](CCN)C(=O)N[C@H](C(=O)N[C@@H](CCN)C(=O)N[C@H]1CCNC(=O)[C@H]([C@@H](C)O)NC(=O)[C@H](CCN)NC(=O)[C@H](CCN)NC(=O)[C@H](CC(C)C)NC(=O)[C@@H](Cc2ccccc2)NC(=O)[C@H](CCN)NC1=O)[C@@H](C)O` [polymyxin B, reference compound] (X1-[Dab]T[Dab][Dab][Dab][dF]L[Dab][Dab]T; lactam 4-C (inferred); N-terminus assumed), the “MIC, K. pneumonia (ATCC BAA-2470)” value in [1] came to 1.5 µg/mL. In addition, the “MIC, A. baumannii (ATCC BAA1605)” value in assay [2] amounted to 0.7 µg/mL. In assay [3], the “MIC, P. aeruginosa (ATCC BAA-1744)” value was 0.7 µg/mL. Besides, in [4], the “MIC, P. aeruginosa (ATCC 10145)” value is 0.7 µg/mL. Moreover, in the assay with E. coli (ATCC BAA-2452) [5], the “MIC, E. coli (ATCC BAA-2452)” value was determined as 0.7 µg/mL. Besides, in assay [6], the “MIC, Klebsiella pneumonia (ATCC 13883)” value worked out at 6.2 µg/mL. In addition, the “MIC, E. coli (ATCC 25922), Control” value in the assay with E. coli (ATCC 25922) (MH media without salt ions or serum, three independent experiments in triplicate) is listed as 0.7 µg/mL. Also, the figures for the “MIC, E. coli (ATCC 25922)” value in the assay on E. coli (ATCC 25922) (setting [11]) and with E. coli (ATCC 25922) (value in parentheses (μM)) were 0.7 µg/mL and 0.58 µM, respectively. Also, the “MIC, E. coli (ATCC 25922), MgCl2” value against E. coli (ATCC 25922) (media with 1 mM MgCl2, three independent experiments in triplicate) is reported as 1.5 µg/mL (≈ 1.25 µM). Moreover, in the assay with E. coli (ATCC 25922) (media with 2 mM CaCl2, three independent experiments in triplicate), the “MIC, E. coli (ATCC 25922), CaCl2” value is on record as 0.7 µg/mL (≈ 0.582 µM). In addition, the “MIC, E. coli (ATCC 25922), KCl” value in the assay on E. coli (ATCC 25922) (media with 4.5 mM KCl, three independent experiments in triplicate) came to 0.7 µg/mL (≈ 0.582 µM). In addition, the “MIC, E. coli (ATCC 25922), NH4Cl” value against E. coli (ATCC 25922) (media with 6 mM NH4Cl, three independent experiments in triplicate) was found to be 0.7 µg/mL (≈ 0.582 µM). In addition, the “MIC, E. coli (ATCC 25922), NaCl” value against E. coli (ATCC 25922) (media with 150 mM NaCl, three independent experiments in triplicate) came to 0.7 µg/mL (≈ 0.582 µM). The “MIC, E. coli (ATCC 25922), FBS (25%)” value with E. coli (ATCC 25922) (media with 25% fetal bovine serum, three independent experiments in triplicate) was 3.1 µg/mL (≈ 2.58 µM). Moreover, the “PI-stained population of E. coli cells” value with E. coli (ATCC BAA-2452) [7] is reported as “did not significantly increase”. In addition, the “time to complete eradication of E. coli cells at 4 × MIC” value with E. coli (ATCC BAA-2452) [8] turned out to be 2.5 h. The “MIC, K. pneumoniae (ATCCBAA-1705)” value is 0.7 µg/mL in [9] (setting [11]) and 0.58 µM in assay [9] (value in parentheses (μM)). In addition, the “MIC, P. aeruginosa (ATCC 27883)” value in assay [10] (setting [11]) amounted to 1.5 µg/mL; in assay [10] (value in parentheses (μM)), 1.25 µM.
